Measurements from patent US20250340516A1, “Isoquinolinones as Modulators of POLRMT” (Pretzel Therapeutics, Inc., priority 2024, published 2025).

Target: POLRMT (Homo sapiens (Human), UniProt O00411)
Assay: homogeneous TR-FRET assay of POLRMT inhibition (mitochondrial transcription, 407 bp RNA product)
Format: biochemical
Settings: 7.5 nM POLRMT, 15 nM TFB2M, 30 nM TFAM, 0.5 nM DNA template, 500 μM NTPs, 37° C., 60 minutes, * = aggregation of data sets, read-out: IC50 values for isoquinolinone compounds
Experimental: The inhibitory activity of the compounds of the present invention against POLRMT were determined by assays based on Bergbrede, T., et al., “An adaptable high-throughput technology enabling the identification of specific transcription modulators,” SLAC Discov., 22, 378-386 (2017).
The ability of some compounds of the present invention to inhibit POLRMT were determined in a homogeneous TR-FRET Assay using high-throughput screening in a 384-well plate format. This method is used to monitor the activity of mitochondrial transcription through measurement of its product, a 407 bp long RNA transcript. Detection of the product is facilitated by hybridization of two DNA-oligonucleotide probes to specific and adjacent sequences within the RNA product sequence. Upon annealing of the probes, two fluorophores are coupled directly to an acceptor nucleotide probe (ATTO647, 5′), or introduced via a coupled streptavidin with a biotinylated donor nucleotide probe (Europium cryptate) that is brought into sufficient proximity to serve as a fluorescence-donor-acceptor pair. Thus, a FRET signal at 665 nm is generated upon excitation at 340 nm.
Proteins used as transcription factors (POLRMT: NP_005026.3, TFAM: NP_003192.1, TFB2M: NP_071761.1) are diluted from their stocks to working concentrations of 1 μM, 20 μM and 4 μM respectively, in a dilution buffer containing 20 mM Tris-HCl (pH 8.0), 200 mM NaCl, 10% (v/v) glycerol, 1 mM Dithiothreitol (DTT), 0.5 mM EDTA.
DNA template is a pUC18 plasmid with the mitochondrial light strand promotor sequence (1-477) cloned between HindIII and BamHI sites. The DNA template is restriction linearized proximal to the promotor 3′-end (pUC-LSP).
The reaction mixture (10 uL) containing 7.5 nM POLRMT, 15 nM of TFB2M, 30 nM of TFAM, 0.5 nM of DNA template and 500 μM nucleotide triphosphate mix (NTPs) in a reaction buffer (containing 10 mM Tris-HCl (pH 7.5), 10 mM MgCl2, 40 mM NaCl, 10 mM DTT, 0.005% (w/v) Tween-20, 160 units/ml Rnase inhibitor and 0.1 mg/mL BSA) are dispensed to compounds in microplates, using a Thermo Multidrop® dispenser, and incubated at 37° C. in a VWR INCU-Line incubator for 60 minutes after mixing. No nucleotide triphosphate mix is added to negative control samples. Microplates with compounds to be tested in the assay are prepared from 10 mM compound stocks in 100% DMSO, equal amounts of DMSO without any compound are added to positive control and negative control samples.
During the incubation, a mix of the detection reagents is prepared in a buffer such that the enzymatic reaction is terminated due to chelating of Mg-ions and increased ionic strength, containing 50 mM Tris-HCl (pH 7.5), 700 mM NaCl, 20 mM EDTA, and 0.01% (w/v) Tween-20. Europium-streptavidin is pre-incubated with a 200-fold molar excess of a random sequence oligonucleotide to block unspecific binding of oligo, for two hours at ambient temperature in the dark. Afterwards, the blocked Europium-streptavidin is kept on ice until use.
At the end of the enzymatic reaction time, 5 μL detection oligo mix in the detection buffer is added, and assay plates are mixed and kept at ambient temperature for one hour, protected from light. The concentration of the Acceptor nucleotide oligo (e.g., ATTO647N-5′-[…]-3′ (SEQ ID NO: 1)) and Donor nucleotide oligo (e.g., bio-5′-AACACATCTCT(-bio)GCCAAACCCCA-bio-3′ (SEQ ID NO: 2)) in each assay well is 1 nM, and 3 nM, respectively.
After incubation with oligo mix, 5 μL of pre-blocked Europium-streptavidin reagent is dispensed to each assay well, assay plates are again mixed and kept at ambient temperature for one hour, protected from light.
The generated signal is measured with BMG Pherastar microtiter plate reader with a TRF light unit, using excitation at 340 nm, an integration time of 200 μs, and a delay time of 100 μs, before detection at 620 nm and 665 nm. The ratio of donor- and acceptor-fluorescence is used as a measure of the generated transcript product (i.e. enzymatic activity).

Chain of POLRMT (O00411 42-1230): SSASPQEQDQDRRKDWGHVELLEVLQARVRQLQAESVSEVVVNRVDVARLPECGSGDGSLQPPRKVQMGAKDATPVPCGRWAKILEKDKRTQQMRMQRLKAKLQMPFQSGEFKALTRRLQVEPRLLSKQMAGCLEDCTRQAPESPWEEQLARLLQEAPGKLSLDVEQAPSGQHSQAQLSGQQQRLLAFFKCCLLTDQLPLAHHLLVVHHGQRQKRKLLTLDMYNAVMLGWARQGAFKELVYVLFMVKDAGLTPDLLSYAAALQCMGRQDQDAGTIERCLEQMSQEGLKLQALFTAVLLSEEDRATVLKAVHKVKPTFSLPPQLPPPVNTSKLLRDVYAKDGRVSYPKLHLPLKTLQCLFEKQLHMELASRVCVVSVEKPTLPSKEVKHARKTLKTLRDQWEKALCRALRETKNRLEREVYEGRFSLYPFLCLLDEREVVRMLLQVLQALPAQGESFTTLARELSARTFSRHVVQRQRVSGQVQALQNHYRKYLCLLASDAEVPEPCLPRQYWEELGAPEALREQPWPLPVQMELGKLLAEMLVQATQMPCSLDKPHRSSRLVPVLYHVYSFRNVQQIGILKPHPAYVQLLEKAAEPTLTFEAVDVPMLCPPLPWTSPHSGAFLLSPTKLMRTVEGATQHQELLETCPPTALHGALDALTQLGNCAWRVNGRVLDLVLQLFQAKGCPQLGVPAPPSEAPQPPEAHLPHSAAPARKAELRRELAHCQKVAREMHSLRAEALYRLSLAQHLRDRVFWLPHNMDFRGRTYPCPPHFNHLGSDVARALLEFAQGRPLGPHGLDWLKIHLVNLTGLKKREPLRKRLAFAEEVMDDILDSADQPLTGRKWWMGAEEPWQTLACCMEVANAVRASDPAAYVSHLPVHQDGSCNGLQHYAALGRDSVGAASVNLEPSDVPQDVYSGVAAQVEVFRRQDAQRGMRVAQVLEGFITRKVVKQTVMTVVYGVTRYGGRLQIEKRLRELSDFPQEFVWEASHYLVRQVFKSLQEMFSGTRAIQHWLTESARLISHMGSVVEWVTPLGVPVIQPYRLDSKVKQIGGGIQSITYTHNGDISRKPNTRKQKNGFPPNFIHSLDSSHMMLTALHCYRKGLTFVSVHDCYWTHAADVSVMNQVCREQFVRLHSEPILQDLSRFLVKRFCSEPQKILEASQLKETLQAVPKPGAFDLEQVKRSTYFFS

SMILES | IC50
Cc1cccc(C)c1-c1c[nH]c(=O)c2cc(O[C@H](C)C(=O)N3CCC(C)(C(=O)O)CC3)ccc12 [Example 20, (R)-1-(2-((4-(2,6-dimethylphenyl)-1-oxo-1,2-dihydroisoquinolin-7-yl)oxy)propanoyl)-4-methylpiperidine-4-carboxylic acid] | 100 nM
Cc1ccccc1-c1c[nH]c(=O)c2cc(O[C@H](C)C(=O)N[C@H](C)C(N)=O)ccc12 [Example 21, (R)-N-((R)-1-amino-1-oxopropan-2-yl)-2-((1-oxo-4-(o-tolyl)-1,2-dihydroisoquinolin-7-yl)oxy)propanamide] | 200 nM
CC(=O)N(C)CCN(C)C(=O)[C@@H](C)Oc1ccc2c(-c3ccccc3C)c[nH]c(=O)c2c1 [Example 22, (R)-N-methyl-N-(2-(N-methylacetamido)ethyl)-2-((1-oxo-4-(o-tolyl)-1,2-dihydroisoquinolin-7-yl)oxy)propanamide] | 2000 nM
COCCN1CCN(C(=O)[C@@H](C)Oc2ccc3c(-c4ccccc4C)c[nH]c(=O)c3c2)CC1=O [Example 23, (R)-7-((1-(4-(2-methoxyethyl)-3-oxopiperazin-1-yl)-1-oxopropan-2-yl)oxy)-4-(o-tolyl)isoquinolin-1(2H)-one] | 300 nM
Cc1ccccc1-c1c[nH]c(=O)c2cc(O[C@@H](C)C(=O)N[C@H](C)C(N)=O)ccc12 [Example 24, (S)-N-((R)-1-amino-1-oxopropan-2-yl)-2-((1-oxo-4-(o-tolyl)-1,2-dihydroisoquinolin-7-yl)oxy)propanamide] | 37000 nM
COC(=O)CN(C)C(=O)[C@H](C)Oc1ccc2c(-c3ccccc3C)c[nH]c(=O)c2c1 [Example 25, methyl (S)-N-methyl-N-(2-((1-oxo-4-(o-tolyl)-1,2-dihydroisoquinolin-7-yl)oxy)propanoyl)glycinate] | > 100000 nM
Cc1ccccc1-c1c[nH]c(=O)c2cc(O[C@@H](C)C(=O)N(C)CC(=O)O)ccc12 [Example 26, (S)-N-methyl-N-(2-((1-oxo-4-(o-tolyl)-1,2-dihydroisoquinolin-7-yl)oxy)propanoyl)glycine] | 43000 nM
COCCN1C2CCC1CN(C(=O)[C@@H](C)Oc1ccc3c(-c4ccccc4C)c[nH]c(=O)c3c1)C2 [Example 27, 7-(((2R)-1-(8-(2-methoxyethyl)-3,8-diazabicyclo[3.2.1]octan-3-yl)-1-oxopropan-2-yl)oxy)-4-(o-tolyl)isoquinolin-1(2H)-one] | 100 nM
CC(=O)N[C@H]1CCCN(C(=O)[C@@H](C)Oc2ccc3c(-c4ccccc4C)c[nH]c(=O)c3c2)C1 [Example 28, N-((S)-1-((R)-2-((1-oxo-4-(o-tolyl)-1,2-dihydroisoquinolin-7-yl)oxy)propanoyl)piperidin-3-yl)acetamide] | 100 nM
CC(=O)N[C@@H]1CCCN(C(=O)[C@@H](C)Oc2ccc3c(-c4ccccc4C)c[nH]c(=O)c3c2)C1 [Example 29, N-((R)-1-((R)-2-((1-oxo-4-(o-tolyl)-1,2-dihydroisoquinolin-7-yl)oxy)propanoyl)piperidin-3-yl)acetamide] | 100 nM
Cc1ccccc1-c1c[nH]c(=O)c2cc(O[C@H](C)C(=O)N3CCC(NC(N)=O)CC3)ccc12 [Example 30, (R)-1-(1-(2-((1-oxo-4-(o-tolyl)-1,2-dihydroisoquinolin-7-yl)oxy)propanoyl)piperidin-4-yl)urea] | 70 nM
Cc1ccccc1-c1c[nH]c(=O)c2cc(O[C@H](C)C(=O)N3CCC(N(C)C)CC3)ccc12 [Example 31, (R)-7-((1-(4-(dimethylamino)piperidin-1-yl)-1-oxopropan-2-yl)oxy)-4-(o-tolyl)isoquinolin-1(2H)-one] | 300 nM
Cc1ccccc1-c1c[nH]c(=O)c2cc(O[C@H](C)C(=O)N3CCC[C@H](N(C)C)C3)ccc12 [Example 32, 7-(((R)-1-((S)-3-(dimethylamino)piperidin-1-yl)-1-oxopropan-2-yl)oxy)-4-(o-tolyl)isoquinolin-1(2H)-one] | 200 nM
Cc1ccccc1-c1c[nH]c(=O)c2cc(O[C@H](C)C(=O)N3CCC[C@@H](N(C)C)C3)ccc12 [Example 33, 7-(((R)-1-((R)-3-(dimethylamino)piperidin-1-yl)-1-oxopropan-2-yl)oxy)-4-(o-tolyl)isoquinolin-1(2H)-one] | 300 nM
Cc1ccccc1-c1c[nH]c(=O)c2cc(O[C@H](C)C(=O)N3CCCC(C4(C(=O)O)CC4)C3)ccc12 (stereo partly drawn) [Example 34, 1-(1-((R)-2-((1-oxo-4-(o-tolyl)-1,2-dihydroisoquinolin-7-yl)oxy)propanoyl)piperidin-3-yl)cyclopropane-1-carboxylic acid] | 30 nM
Cc1ccccc1-c1c[nH]c(=O)c2cc(O[C@H](C)C(=O)N3CCC[C@H](CC(N)=O)C3)ccc12 [Example 38, 2-((R)-1-((R)-2-((1-oxo-4-(o-tolyl)-1,2-dihydroisoquinolin-7-yl)oxy)propanoyl)piperidin-3-yl)acetamide] | 9 nM
Cc1ccccc1-c1c[nH]c(=O)c2cc(O[C@H](C)C(=O)N3CCC[C@@H](CC(N)=O)C3)ccc12 [Example 39, 2-((S)-1-((R)-2-((1-oxo-4-(o-tolyl)-1,2-dihydroisoquinolin-7-yl)oxy)propanoyl)piperidin-3-yl)acetamide] | 40 nM
N#CCOc1ccc2c(-c3ccccc3CCO)c[nH]c(=O)c2c1 [Example 42, 2-((4-(2-(2-hydroxyethyl)phenyl)-1-oxo-1,2-dihydroisoquinolin-7-yl)oxy)acetonitrile] | 300 nM
COCc1ccccc1-c1c[nH]c(=O)c2cc(OCC#N)ccc12 [Example 47, 2-((4-(2-(methoxymethyl)phenyl)-1-oxo-1,2-dihydroisoquinolin-7-yl)oxy)acetonitrile] | 18000 nM
Cc1cccc(C#N)c1-c1c[nH]c(=O)c2cc(OCC#N)ccc12 [Example 48, 2-(7-(cyanomethoxy)-1-oxo-1,2-dihydroisoquinolin-4-yl)-3-methylbenzonitrile] | 500 nM
N#CCOc1ccc2c(-c3ccccc3OC(F)(F)F)c[nH]c(=O)c2c1 [Example 49, 2-((1-oxo-4-(2-(trifluoromethoxy)phenyl)-1,2-dihydroisoquinolin-7-yl)oxy)acetonitrile] | > 100000 nM
CC(=O)N1CCN(C[C@@H](C)Oc2ccc3c(-c4ccccc4C)c[nH]c(=O)c3c2)CC1 [Example 54, (R)-7-((1-(4-acetylpiperazin-1-yl)propan-2-yl)oxy)-4-(o-tolyl)isoquinolin-1(2H)-one] | 4000 nM
CC(=O)N1CCN(C[C@H](C)Oc2ccc3c(-c4ccccc4C)c[nH]c(=O)c3c2)CC1 [Example 55, (S)-7-((1-(4-acetylpiperazin-1-yl)propan-2-yl)oxy)-4-(o-tolyl)isoquinolin-1(2H)-one] | 37000 nM
Cc1cc(F)ccc1-c1c[nH]c(=O)c2cc(O[C@H](C)C(=O)N3CCN(C(N)=O)CC3)ccc12 [Example 56, (R)-4-(2-((4-(4-fluoro-2-methylphenyl)-1-oxo-1,2-dihydroisoquinolin-7-yl)oxy)propanoyl)piperazine-1-carboxamide] | 30 nM
Cc1c(F)cccc1-c1c[nH]c(=O)c2cc(O[C@H](C)C(=O)N3CCN(C(N)=O)CC3)ccc12 [Example 57, (R)-4-(2-((4-(3-fluoro-2-methylphenyl)-1-oxo-1,2-dihydroisoquinolin-7-yl)oxy)propanoyl)piperazine-1-carboxamide] | 20 nM
